Measurements taken from patent publication US12491185B2, “Inhibitors of mPTP” (NRG Therapeutics Ltd, priority 2023, dated 2025).

What was measured:
mPTP [1] = test: mPTP activity (Ca2+ retention) assay in isolated rat liver mitochondria; assay type: biochemical; conditions: examples tested by different contract research organisations, believed comparable
How it was run: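 pIC50 was taken from Fluo5N fluorescence at 10 min after a 75 μM CaCl2 bolus, scaled between DMSO (0%) and 5 μM cyclosporin A (100%). Compounds, ten half-log concentrations from 30 μM to 1 nM final, sat 10 min at RT with fresh female Sprague Dawley rat liver mitochondria energized by succinate plus rotenone.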

mPTP [2] = test: mPTP activity assay in isolated rat brain mitochondria; assay type: biochemical; conditions: fluorescence at 10 min timepoint
Method: MPTP activity was measured in brain mitochondria freshly isolated from female Sprague Dawley (250 to 300 gram) rats. Anaesthetised rats were perfused in-situ with −40 ml cold Dulbecco's Phosphate Buffered Saline (DPBS), then brains dissected and transferred into 30 ml Isolation Buffer (225 mM mannitol, 75 mM sucrose, 1 mM EGTA, adjusted to pH 7.4 with 1M NaOH). The brain was minced using tweezers and a scalpel into −5 mm pieces then transferred into a 50 ml Potterton Dounce homogenization tube on ice containing 10 ml ice-cold isolation buffer (as above with addition of Complete Protease inhibitor; 1 tablet per 50 ml buffer). Homogenisation was carried out using a teflon pestle at 1800 rpm. The slurry was centrifuged at 2000 g for 10 min at 4° C., then the supernatant centrifuged at 12,000 g for 9 min. The pellet was resuspended with a dounce homogeniser in isolation buffer as above but with the addition of 0.02% digitonin, centrifuged at 12,000 g for 11 min and finally resuspended in 5 ml modified isolation buffer (as above but with EGTA reduced to 0.1 mM).
Test compounds were prepared in 384 well polypropylene assay plates as described above for the liver mitochondria assay. A stock mitochondria/Fluo5N assay solution was prepared in 5.6 ml assay buffer (120 mM mannitol, 40 mM MOPS, 5 mM KH2PO4, 60 mM KCl, 10 mM pyruvate, 2 mM malate, 2 mM MgCl2, 20 μM ADP, 1.26 μM oligomycin A, adjusted to pH 7.4) supplemented with Fluo5N pentapotassium salt (2 μM) and 1 ml mitochondria suspension, then transferred (15 μl) into the assay plate containing test compounds and incubated for 10 min at RT. Assay plates were then transferred to a FLIPR Tetra plate reader (Molecular Devices). Dye fluorescence was then measured every 3 sec for a total of 10 min.

| SMILES | mPTP Rat liver pIC50 (mPTP [1]) | mPTP Rat brain pIC50 (mPTP [2]) |
| --- | --- | --- |
| Cn1nc(C(=O)NCC(C)(CO)Cc2ccccc2)[nH]c1=O (centres unmarked) [Example 41, N-(2-benzyl-3-hydroxy-2-methylpropyl)-1-methyl-5-oxo-4,5-dihydro-1H-1,2,4-triazole-3-carboxamide] | 5.25 | 6.38 |
| CC(NC(=O)c1nn(C)c(=O)[nH]1)C1(Cc2ccccc2)CCC1 (centres unmarked) [Example 23, N-(1-(1-benzylcyclobutyl)ethyl)-1-methyl-5-oxo-4,5-dihydro-1H-1,2,4-triazole-3 carboxamide] | 6.64 | 7.37 |
| CC(c1ccc(F)cc1F)[C@@H](CNC(=O)c1nn(C)c(=O)[nH]1)C1CC1 (single isomer, unassigned) [Example 237] | 6.56 | 7.46 |
| CC(NC(=O)c1nn(C)c(=O)[nH]1)C(C)(C)Cc1ccccc1 (centres unmarked) [Example 38, N-(3,3-dimethyl-4-phenylbutan-2-yl)-1-methyl-5-oxo-4,5-dihydro-1H-1,2,4-triazole-3-carboxamide] | 6.14 | 7.30 |
| Cn1nc(C(=O)NC[C@H](Cc2ccc(F)cc2Cl)C2CC2)[nH]c1=O [Example 241, (R)-N-(3-(2-chloro-4-fluorophenyl)-2-cyclopropylpropyl)-1-methyl-5-oxo-4,5-dihydro-1H-1,2,4-triazole-3-carboxamide] | 6.81 | 7.73 |
| CC[C@@H](CNC(=O)c1nn(C)c(=O)[nH]1)Cc1ccccc1 (single isomer, unassigned) [Example 54a] | 5.04 | 5.68 |
| CC[C@H](CNC(=O)c1nn(C)c(=O)[nH]1)Cc1ccccc1 (single isomer, unassigned) [Example 54b] | 6.82 | 7.94 |
| O=C(NCC1(Cc2cccc(F)c2F)CCC1)c1cncc(=O)[nH]1 [Example 17, N-((1-(2,3-difluorobenzyl)cyclobutyl)methyl)-6-oxo-1,6-dihydropyrazine-2-carboxamide] | 6.05 | 6.96 |
| O=C(NCC1(Cc2ccccc2)CCCCC1)c1cncc(=O)[nH]1 [Example 47, N-((1-benzylcyclohexyl)methyl)-6-oxo-1,6-dihydropyrazine-2-carboxamide] | 4.71 | 6.91 |
| CC(O)C(C)(CNC(=O)c1nn(C)c(=O)[nH]1)Cc1ccccc1 (centres unmarked) [Example 42, N-(2-benzyl-3-hydroxy-2-methylbutyl)-1-methyl-5-oxo-4,5-dihydro-1H-1,2,4-triazole-3-carboxamide] | 5.27 | 6.26 |
| CC(NC(=O)c1nn(C)c(=O)[nH]1)C1(Cc2ccccc2)CCC1 (single isomer, unassigned) [Example 24B, N-(1-(1-benzylcyclobutyl)ethyl)-1-methyl-5-oxo-4,5-dihydro-1H-1,2,4-triazole-3-carboxamide] | <4.52 | 5.49 |
| O=C(NCC1(Cc2ccccc2)CCC1)c1cncc(O)n1 [Example 2, N-((1-benzylcyclobutyl)methyl)-6-hydroxypyrazine-2-carboxamide] | 5.64 | 6.95 |
| Cn1nc(C(=O)NC(C(F)(F)F)C(C)(C)Cc2ccccc2)[nH]c1=O (centres unmarked) [Example 35, 1-methyl-5-oxo-N-(1,1,1-trifluoro-3,3-dimethyl-4-phenylbutan-2-yl)-4,5-dihydro-1H-1,2,4-triazole-3-carboxamide] | 5.23 | 6.86 |
| O=C(NCC1(Cc2ccccc2)CC(F)(F)C1)c1cncc(=O)[nH]1 [Example 48, N-((1-benzyl-3,3-difluorocyclobutyl)methyl)-6-oxo-1,6-dihydropyrazine-2-carboxamide] | 4.56 | 5.99 |
| O=C(NCC1(Cc2ccc(F)cc2F)CCC1)c1cncc(=O)[nH]1 [Example 16, N-((1-(2,4-difluorobenzyl)cyclobutyl)methyl)-6-oxo-1,6-dihydropyrazine-2-carboxamide] | – | 7.35 |
| CCC(CC)(CNC(=O)c1nn(C)c(=O)[nH]1)Cc1ccc(F)cc1F [Example 199] | 6.55 | – |
| O=C(NC[C@H](Cc1ccc(F)c(F)c1)C1CC1)c1cncc(=O)[nH]1 [Example 151] | 5.88 | – |
| CC(C)C(CNC(=O)c1nn(C)c(=O)[nH]1)Cc1ccccc1 (centres unmarked) [Example 45, N-(2-benzyl-3-methylbutyl)-1-methyl-5-oxo-4,5-dihydro-1H-1,2,4-triazole-3-carboxamide] | 6.50 | – |
| CC[C@@H](Cc1ccc(F)cc1F)C(C)NC(=O)c1nn(C)c(=O)[nH]1 (stereo partly drawn) [Example 141, N-[(3S)-3-[(2,4-difluorophenyl)methyl]pentan-2-yl]-1-methyl-5-oxo-4H-1,2,4-triazole-3-carboxamide] | 6.44 | – |
| O=C(NCC1(Cc2ccc(F)cc2F)CC12CC2)c1nccc(=O)[nH]1 (centres unmarked) [Example 186] | 6.58 | – |
| CC[C@H](CNC(=O)c1nn(C)c(=O)[nH]1)Cc1c(F)cc(F)cc1F [Example 125] | 6.55 | – |
| Cn1nc(C(=O)NCC2CCc3ccccc3C2)[nH]c1=O (centres unmarked) [Example 60] | 5.10 | – |
| Cn1nc(C(=O)NC[C@H](Cc2c(F)cccc2F)C2CC2)[nH]c1=O [Example 212] | 6.18 | – |
| O=C(NC[C@H](Cc1c(F)cccc1F)C1CC1)c1nccc(=O)[nH]1 [Example 189] | 5.26 | – |
| CCC(CNC(=O)c1nn(C)c(=O)[nH]1)Cc1ccc2c(c1)CCO2 (centres unmarked) [Example 172] | 5.41 | – |
| CCC(Cc1ccc(F)cc1F)CN(C)C(=O)c1nn(C)c(=O)[nH]1 (centres unmarked) [Example 179, N-(2-(2,4-difluorobenzyl)butyl)-N,1-dimethyl-5-oxo-4,5-dihydro-1H-1,2,4-triazole-3-carboxamide] | <4.57 | – |

Next, values leading:

| mPTP Rat liver pIC50 (mPTP [1]) | mPTP Rat brain pIC50 (mPTP [2]) | SMILES |
| --- | --- | --- |
| 6.20 | 7.63 | Cn1nc(C(=O)NCC2(Cc3ccccc3Cl)CCC2)[nH]c1=O [Example 30, N-((1-(2-chlorobenzyl)cyclobutyl)methyl)-1-methyl-5-oxo-4,5-dihydro-1H-1,2,4-triazole-3-carboxamide] |
| 6.16 | 7.39 | Cn1nc(C(=O)NCC2(Cc3cccc(F)c3F)CCC2)[nH]c1=O [Example 95, N-((1-(2,3-Difluorobenzyl)cyclobutyl)methyl)-1-methyl-5-oxo-4,5-dihydro-1H-1,2,4-triazole-3-carboxamide] |
| 5.95 | 7.04 | Cc1cnc(C(=O)NCC(C)(Cc2ccc(F)cc2F)C2CC2)[nH]c1=O (centres unmarked) [compound 266] |
| 6.58 | – | Cn1nc(C(=O)NCC(Cc2ccc(F)cc2F)C2CC2)[nH]c1=O (centres unmarked) [Example 93, N-(2-Cyclopropyl-3-(2,4-difluorophenyl)propyl)-1-methyl-5-oxo-4,5-dihydro-1H-1,2,4-triazole-3-carboxamide] |
| <4.57 | – | Cc1cc(=O)[nH]c(C(=O)NCC2(Cc3ccc(F)cc3F)CCC2)n1 [Example 200] |
| <4.57 | – | Cn1nc(C(=O)NCC2(Cc3ccc(C(F)(F)F)cc3F)CCC2)[nH]c1=O [Example 104, N-((1-(2-fluoro-4-(trifluoromethyl)benzyl)cyclobutyl)methyl)-1-methyl-5-oxo-4,5-dihydro-1H-1,2,4-triazole-3-carboxamide] |
| 5.65 | – | Cn1nc(C(=O)NCC2(Cc3ccccc3C(F)F)CCC2)[nH]c1=O [Example 76, N-((1-(2-(Difluoromethyl)benzyl)cyclobutyl)methyl)-1-methyl-5-oxo-4,5-dihydro-1H-1,2,4-triazole-3-carboxamide] |
| 7.04 | – | Cn1nc(C(=O)NCC2(Cc3ccc(F)cc3F)CC23CC3)[nH]c1=O (centres unmarked) [Example 123] |
| <4.57 | – | O=C(NCC1(Cc2ccc(F)cc2F)CCC1)c1cnc(=O)[nH]c1 [Example 145] |
| <4.57 | – | Cn1nc(C(=O)NCC2(Cc3ccc(F)cc3F)CCC(F)(F)CC2)[nH]c1=O [Example 197] |
| 5.83 | – | Cn1nc(C(=O)NCC2(Cc3cccc(Cl)c3F)CCC2)[nH]c1=O [Example 85, N-((1-(3-Chloro-2-fluorobenzyl)cyclobutyl)methyl)-1-methyl-5-oxo-4,5-dihydro-1H-1,2,4-triazole-3-carboxamide] |
| <4.57 | – | Cc1cccc(C)c1CC1(CNC(=O)c2nn(C)c(=O)[nH]2)CCC1 [Example 108, N-((1-(2,6-dimethylbenzyl)cyclobutyl)methyl)-1-methyl-5-oxo-4,5-dihydro-1H-1,2,4-triazole-3-carboxamide] |
| 6.39 | – | O=C(NC[C@H](Cc1ccc(F)cc1F)C1CC1)c1cc(=O)[nH]o1 [Example 136] |
